Test results as given in patent US11203613B2, “Peptidomimetic proteasome inhibitors” (CORNELL UNIVERSITY, priority 2017, dated 2021).
Values joined by “and” are separate entries in the source; they are usually repeats but may differ in a detail not shown here. Identical values can stand only once.

These compounds were tested against Human Constitutive (Hu C-20S) β5 Active Subunit (Homo sapiens, UniProt P28074) (assay: IC50 determination, human constitutive 20S proteasome β5c (suc-LLVY-AMC hydrolysis)). Settings: Table 2; several values in a cell are repeat determinations; read-out: Hu c-20S IC50.
Format: biochemical

| SMILES | IC50 |
| --- | --- |
| Cc1cc(C(=O)N[C@@H](CC(=O)N2CCCCC2C)C(=O)N(C)[C@@H](C)C(=O)NCc2ccc(F)cc2F)no1 (some centres unmarked) | 19 µM |
| C[C@H](NC(=O)[C@H](CC(=O)N1CCCC[C@@H]1C)NC(=O)CCc1ccccc1)C(=O)NCc1cccc(NC(=O)OC(C)(C)C)c1 | 50.2 µM |
| C[C@H](NC(=O)[C@H](CC(=O)N1CCCC[C@@H]1C)NC(=O)CCc1ccccc1)C(=O)NCc1cccc(N)c1 | 0.69 µM |
| CCC1CCCCN1C(=O)CC(NC(=O)C1CC1c1ccccc1)C(=O)NC(C)c1nc2c(F)cccc2[nH]1 (centres unmarked) | 8.14 µM |
| CC[C@H]1CCCCN1C(=O)C[C@H](NC(=O)CCC(C)(C)C)C(=O)N[C@@H](C)c1nc2ccccc2[nH]1 [CF-503217] | 6.85 µM and 8.99 µM |
| CCC1CCCCN1C(=O)CC(NC(=O)CCC(C)C)C(=O)NC1CCCC1c1ncc(-c2ccc(F)cc2F)[nH]1 (centres unmarked) [CF-503292] | 4.95 µM and 9.23 µM and 8.19 µM and 8.6 µM |
| C[C@H](NC(=O)[C@H](CC(=O)N1CCCC1)NC(=O)CCc1ccccc1)C(=O)NCc1cccc2cc[nH]c12 [CF-503293] | 4.06 µM and 11.6 µM and 19.1 µM and 36.7 µM |

Same assay, conditions: Table 3; IC50 against human constitutive β5 active subunit; read-out: Hu-C20S β5

| SMILES | IC50 |
| --- | --- |
| Cc1ncc(C(=O)N[C@@H](CC(=O)N2CCCC[C@@H]2C)C(=O)N[C@@H](C)c2ncc(-c3ccc(F)cc3F)[nH]2)s1 [CEN-105, N—((S)-1-(((S)-1-(5-(2,4-Difluorophenyl)-1H-imidazol-2-yl)ethyl)amino)-4-((S)-2-methylpiperidin-1-yl)-1,4-dioxobutan-2-yl)-2-methylthiazole-5-carboxamide] | 3.9 µM |
| C[C@H](NC(=O)[C@H](CC(=O)N1CCCC[C@@H]1C)NC(=O)CC1CCOCC1)c1ncc(-c2ccc(F)cc2F)[nH]1 [CEN-106, (S)—N—((S)-1-(5-(2,4-Difluorophenyl)-1H-imidazol-2-yl)ethyl)-4-((S)-2-methylpiperidin-1-yl)-4-oxo-2-(2-(tetrahydro-2H-pyran-4-yl)acetamido)butanamide] | 12.8 µM |
| CC(C)CCC(=O)N[C@@H](CC(=O)N1CCCCC1C(C)C)C(=O)N[C@@H](C)c1ncc(-c2ccc(F)cc2F)[nH]1 (stereo partly drawn) [CEN-107, N-((2S)-1-(((S)-1-(5-(2,4-Difluorophenyl)-1H-imidazol-2-yl)ethyl)amino)-4-(2-isopropylpiperidin-1-yl)-1,4-dioxobutan-2-yl)-4-methylpentanamide] | 2.8 µM |
| C[C@H](NC(=O)[C@H](CC(=O)N1CCCC[C@@H]1C)NS(=O)(=O)CCC1CC1)c1ncc(-c2ccc(F)cc2F)[nH]1 [CEN-108, (S)-2-((2-Cyclopropylethyl)sulfonamido)-N—((S)-1-(5-(2,4-difluorophenyl)-1H-imidazol-2-yl)ethyl)-4-((S)-2-methylpiperidin-1-yl)-4-oxobutanamide] | 6.2 µM |
| C[C@H](NC(=O)[C@H](CC(=O)N1CCCC[C@@H]1C)Nc1nc2ccccc2o1)c1ncc(-c2ccc(F)cc2F)[nH]1 [CEN-109, (S)-2-(Benzo[d]oxazol-2-ylamino)-N—((S)-1-(5-(2,4-difluorophenyl)-1H-imidazol-2-yl)ethyl)-4-((S)-2-methylpiperidin-1-yl)-4-oxobutanamide] | 7.3 µM |
| C[C@H](NC(=O)[C@H](CC(=O)N1CCCC[C@@H]1C)NS(=O)(=O)c1ccccc1)c1ncc(-c2ccc(F)cc2F)[nH]1 [CEN-110, (S)—N—((S)-1-(5-(2,4-Difluorophenyl)-1H-imidazol-2-yl)ethyl)-4-((S)-2-methylpiperidin-1-yl)-4-oxo-2-(phenylsulfonamido)butanamide] | 8.1 µM |
| CC(C)CCC(=O)N[C@@H](CC(=O)N1CCCC[C@@H]1C(F)(F)F)C(=O)N[C@@H](C)c1ncc(-c2ccc(F)cc2F)[nH]1 [CEN-111, N—((S)-1-(((S)-1-(5-(2,4-Difluorophenyl)-1H-imidazol-2-yl)ethyl)amino)-1,4-dioxo-4-((R)-2-(trifluoromethyl)piperidin-1-yl)butan-2-yl)-4-methylpentanamide] | 4.9 µM |
| C[C@H](NC(=O)[C@H](CC(=O)N1CCCC[C@@H]1C)NS(=O)(=O)Cc1ccccc1)c1ncc(-c2ccc(F)cc2F)[nH]1 [CEN-112, (S)—N—((S)-1-(5-(2,4-Difluorophenyl)-1H-imidazol-2-yl)ethyl)-4-((S)-2-methylpiperidin-1-yl)-4-oxo-2-((phenylmethyl)sulfonamido)butanamide] | 6.1 µM |
| Cc1ccc(S(=O)(=O)N[C@@H](CC(=O)N2CCCC[C@@H]2C)C(=O)N[C@@H](C)c2ncc(-c3ccc(F)cc3F)[nH]2)cc1 [CEN-113, (S)—N—((S)-1-(5-(2,4-Difluorophenyl)-1H-imidazol-2-yl)ethyl)-2-((4-methylphenyl)sulfonamido)-4-((S)-2-methylpiperidin-1-yl)-4-oxobutanamide] | 6.5 µM |
| CC(C)CCS(=O)(=O)N[C@@H](CC(=O)N1CCCC[C@@H]1C)C(=O)N[C@@H](C)c1ncc(-c2ccc(F)cc2F)[nH]1 [CEN-114, (S)—N—((S)-1-(5-(2,4-Difluorophenyl)-1H-imidazol-2-yl)ethyl)-2-((3-methylbutyl)sulfonamido)-4-((S)-2-methylpiperidin-1-yl)-4-oxobutanamide] | 9.7 µM |
| Cc1cc(C(=O)N[C@@H](CC(=O)N2CCC[C@@H]2c2ccccc2)C(=O)N[C@@H](C)c2ncc(-c3ccc(F)cc3F)[nH]2)no1 [CEN-115, N—((S)-1-(((S)-1-(5-(2,4-Difluorophenyl)-1H-imidazol-2-yl)ethyl)amino)-1,4-dioxo-4-((R)-2-phenylpyrrolidin-1-yl)butan-2-yl)-5-methylisoxazole-3-carboxamide] | > 100 µM |
| Cc1cc(C(=O)N[C@@H](CC(=O)N2CCCC[C@@H]2C)C(=O)N[C@@H](C)c2ncc(-c3ccccc3)[nH]2)no1 [CEN-116, 5-Methyl-N—((S)-4-((S)-2-methylpiperidin-1-yl)-1,4-dioxo-1-(((S)-1-(5-phenyl-1H-imidazol-2-yl)ethyl)amino)butan-2-yl)isoxazole-3-carboxamide] | 9.5 µM |
| Cc1cc(C(=O)N[C@@H](CC(=O)N2CCCCC2C)C(=O)N[C@@H](C)c2ncc(-c3ccccc3)[nH]2)no1 (stereo partly drawn) [CEN-117, 5-Methyl-N-((2S)-4-(2-methylpiperidin-1-yl)-1,4-dioxo-1-(((S)-1-(5-phenyl-1H-imidazol-2-yl)ethyl)amino)butan-2-yl)isoxazole-3-carboxamide] | 11 µM |
| Cc1cc(C(=O)N[C@@H](CC(=O)N2CCCC[C@@H]2C)C(=O)N[C@@H](C)c2ncc(-c3ccccc3F)[nH]2)no1 [CEN-118, N—((S)-1-(((S)-1-(5-(2-Fluorophenyl)-1H-imidazol-2-yl)ethyl)amino)-4-((S)-2-methylpiperidin-1-yl)-1,4-dioxobutan-2-yl)-5-methylisoxazole-3-carboxamide] | 15.8 µM |
| Cc1cc(C(=O)N[C@@H](CC(=O)N2CCCC[C@@H]2C)C(=O)N[C@@H](C)c2ncc(-c3ccc(F)cc3)[nH]2)no1 [CEN-119, N—((S)-1-(((S)-1-(5-(4-Fluorophenyl)-1H-imidazol-2-yl)ethyl)amino)-4-((S)-2-methylpiperidin-1-yl)-1,4-dioxobutan-2-yl)-5-methylisoxazole-3-carboxamide] | 18 µM |
| Cc1cc(C(=O)N[C@@H](CC(=O)N2CCC[C@@H]2c2ccccc2)C(=O)N[C@@H](C)c2ncc(-c3ccccc3)[nH]2)no1 [CEN-120, N—((S)-1,4-Dioxo-1-(((S)-1-(5-phenyl-1H-imidazol-2-yl)ethyl)amino)-4-((R)-2-phenylpyrrolidin-1-yl)butan-2-yl)-5-methylisoxazole-3-carboxamide] | > 100 µM |
| C[C@H](NC(=O)[C@H](CC(=O)N1CCC[C@@H]1c1ccccc1)NC(=O)CC1CC1)c1ncc(Cc2ccccc2)[nH]1 [CEN-121, (S)—N—((S)-1-(5-Benzyl-1H-imidazol-2-yl)ethyl)-2-(2-cyclopropylacetamido)-4-oxo-4-((R)-2-phenylpyrrolidin-1-yl)butanamide] | 10.6 µM |
| C[C@H](NC(=O)[C@H](CC(=O)N1CCCC[C@@H]1C)NC(=O)CC1CCOCC1)c1ncc(Cc2ccccc2)[nH]1 [CEN-122, (S)—N—((S)-1-(5-Benzyl-1H-imidazol-2-yl)ethyl)-4-((S)-2-methylpiperidin-1-yl)-4-oxo-2-(2-(tetrahydro-2H-pyran-4-yl)acetamido)butanamide] | 13.5 µM |
| Cc1cc(C(=O)N[C@@H](CC(=O)N2CCC[C@@H]2c2ccccc2)C(=O)N[C@@H](C)c2ncc(Cc3ccccc3)[nH]2)no1 [CEN-123, N—((S)-1-(((S)-1-(5-Benzyl-1H-imidazol-2-yl)ethyl)amino)-1,4-dioxo-4-((R)-2-phenylpyrrolidin-1-yl)butan-2-yl)-5-methylisoxazole-3-carboxamide] | 7.4 µM |
| C[C@H](NC(=O)[C@H](CC(=O)N1CCCC[C@@H]1C)NC(=O)CC1CC1)c1ncc(Cc2ccccc2)[nH]1 [CEN-124, (S)—N—((S)-1-(5-Benzyl-1H-imidazol-2-yl)ethyl)-2-(2-cyclopropylacetamido)-4-((S)-2-methylpiperidin-1-yl)-4-oxobutanamide] | 10.4 µM |
| C[C@H](NC(=O)[C@H](CC(=O)N1CCC[C@@H]1c1ccccc1)Nc1nc2ccccc2o1)c1ncc(-c2ccccc2F)[nH]1 [CEN-125, (S)-2-(benzo[d]oxazol-2-ylamino)-N—((S)-1-(5-(2-fluorophenyl)-1H-imidazol-2-yl)ethyl)-4-oxo-4-((R)-2-phenylpyrrolidin-1-yl)butanamide] | 20.6 µM |

These compounds were tested against Mtb20SOG (Mycobacterium tuberculosis, UniProt P9WHT9) (assay: biochemical). Settings: not given.
Mtb20SOG, sequence (P9WHT9 58-291): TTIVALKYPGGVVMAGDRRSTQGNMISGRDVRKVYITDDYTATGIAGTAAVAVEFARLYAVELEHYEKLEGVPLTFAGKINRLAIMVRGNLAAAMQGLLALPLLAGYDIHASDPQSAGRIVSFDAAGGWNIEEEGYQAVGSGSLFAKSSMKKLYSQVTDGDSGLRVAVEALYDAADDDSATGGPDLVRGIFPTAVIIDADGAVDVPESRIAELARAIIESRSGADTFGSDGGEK

| SMILES | IC50 |
| --- | --- |
| CCC1CCCCN1C(=O)CC(NC(=O)C1CC1c1ccccc1)C(=O)NC(C)c1nc2c(F)cccc2[nH]1 (centres unmarked) | 51 nM |
| Cc1cc(C(=O)N[C@@H](CC(=O)N2CCC[C@@H]2c2ccccc2)C(=O)N[C@@H](C)c2ncc(-c3ccccc3F)[nH]2)no1 [CF-503108] | 13 nM |
| CC(C)CCC(=O)N[C@@H](CC(=O)N1CCC[C@@H]1c1ccccc1)C(=O)N[C@@H](C)c1nc2ccccc2[nH]1 [CF-503150] | 47 nM and 45 nM and 50 nM and 69 nM and 59 nM and 42 nM |
| C[C@H](NC(=O)[C@H](CC(=O)N1CCCC1)NC(=O)CCc1ccccc1)C(=O)NCc1cccc2cn[nH]c12 [CF-503390] | 121 nM and 88 nM |
| CC[C@H]1CCCCN1C(=O)C[C@H](NC(=O)C1CC2(CCC2)C1)C(=O)N[C@@H](C)c1nc2c(F)cccc2[nH]1 [CF-503458] | 7 nM and 11 nM |
| CC(NC(=O)C(CC(=O)N1CCCCC1C)NC(=O)C1CC2(CCC2)C1)c1nc2c(F)cccc2[nH]1 (centres unmarked) [CF-503459] | 13 nM and 20 nM |

Same assay, conditions: Table 2; several values in a cell are repeat determinations

| SMILES | IC50 |
| --- | --- |
| Cc1cc(C(=O)N[C@@H](CC(=O)N2CCCCC2C)C(=O)N(C)[C@@H](C)C(=O)NCc2ccc(F)cc2F)no1 (some centres unmarked) | 10000 nM |
| C[C@H](NC(=O)[C@H](CC(=O)N1CCCC[C@@H]1C)NC(=O)CCc1ccccc1)C(=O)NCc1cccc(NC(=O)OC(C)(C)C)c1 | 24700 nM |
| C[C@H](NC(=O)[C@H](CC(=O)N1CCCC[C@@H]1C)NC(=O)CCc1ccccc1)C(=O)NCc1cccc(N)c1 | 5 nM |
| C[C@H](NC(=O)[C@H](CC(=O)N1CCCC[C@@H]1C)NC(=O)[C@H]1C[C@@H]1c1ccccc1)c1nc2c(F)cccc2[nH]1 [drawing 477] | 166 nM |
